# Results published in ChEMBL document CHEMBL3808378, “Enantioselective syntheses of both enantiomers of 9'-dehydroxyimperanene and 7,8-dihydro-9'-dehydroxyimperanene and the comparison of biological activity between 9-norlignans and dihydroguaiaretic acids” (Bioorg Med Chem Lett, 2016).
# Experiments:
# HeLa = assay: Cytotoxicity against human HeLa cells assessed as reduction in cell viability after 48 hrs by WST-8 reduction assay; format: functional, cell-based
# Culex pipiens = assay: Antilarvicidal activity against Culex pipiens larvae after 24 hrs; format: functional
# Lolium multiflorum [1] = assay: Growth inhibition of Italian ryegrass assessed as reduction in shoot growth at 1 mM after 5 days; format: functional; settings: 120 h, read-out: GI
# Fusarium solani = assay: Antifungal activity against Fusarium solani assessed as mycelial colony growth levels at 0.25 mM after 3 days by caliper analysis; format: functional
# [2] = Cytotoxicity against human HL60 cells assessed as reduction in cell viability after 48 hrs by WST-8 reduction assay; format: functional, cell-based; settings: HL-60, 48 h
# [3] = Antifungal activity against Bipolaris oryzae assessed as mycelial colony growth levels at 0.25 mM after 3 days by caliper analysis; format: functional
# [4] = Cytotoxicity against fall armyworm Sf9 cells assessed as reduction in cell viability after 48 hrs by WST-8 reduction assay; format: cell-based; settings: Spodoptera frugiperda, Sf9, 48 h
# Jonesia denitrificans = assay: Antibacterial activity against Listeria denitrificans JCM 11481 after 24 hrs by 2 fold dilution method; format: functional; settings: JCM 11481, 24 h
# Lolium multiflorum [5] = assay: Growth inhibition of Italian ryegrass assessed as reduction in root growth at 1 mM after 5 days; format: functional; settings: 120 h, read-out: GI
# Bacillus subtilis = assay: Antibacterial activity against Bacillus subtilis subsp. subtilis NBRC 13719 after 24 hrs by 2 fold dilution method; format: functional; settings: NBRC 13719, 24 h
# Colletotrichum lagenaria = assay: Antifungal activity against Colletotrichum lagenarium assessed as mycelial colony growth levels at 0.25 mM after 5 days by caliper analysis; format: functional
# Salmonella enterica = assay: Antibacterial activity against Salmonella choleraesuis subsp. choleraesuis JCM 6977 after 24 hrs by 2 fold dilution method; format: functional; settings: JCM 6977, 24 h
# Alternaria alternata = assay: Antifungal activity against Alternaria alternata assessed as mycelial colony growth at 0.25 mM after 3 days by caliper analysis; format: functional
# [6] = Selectivity index, ratio of IC50 for fall armyworm sf9 cells to IC50 for Cytotoxicity against human HeLa cells; format: toxicity, cell-based; settings: fall armyworm and human, read-out: Ratio IC50
# [7] = Selectivity index, ratio of IC50 for fall armyworm Sf9 cells to IC50 for Cytotoxicity against human HL60 cells; format: toxicity, cell-based; settings: fall armyworm and human, read-out: Ratio IC50
Compound,IC50 (HeLa) [µM],LD50 (Culex pipiens) [×10⁻⁵ M],inhibition of growth at 1000 µM (Lolium multiflorum [1]) [%],Activity (Fusarium solani) [%],IC50 [2] [µM],Activity [3] [%],IC50 [4] [µM],MIC (Jonesia denitrificans) [µM],inhibition of growth at 1000 µM (Lolium multiflorum [5]) [%],MIC (Bacillus subtilis) [µM],Activity (Colletotrichum lagenaria) [%],MIC (Salmonella enterica) [µM],Activity (Alternaria alternata) [%],selectivity ratio [6],selectivity ratio [7]
COc1cc(CC[C@@H](C)Cc2ccc(O)c(OC)c2)ccc1O,21,9.9,2.2,70.1,12,47.2,25,1560,-7.01,3130,39.4,6250,32.3,,
COc1cc(CC[C@H](C)Cc2ccc(O)c(OC)c2)ccc1O,6.1,9.67,19.9,95.4,5.6,46.4,12,1560,13.3,3130,43.1,,44.4,2,2
COc1cc(/C=C/[C@@H](C)Cc2ccc(O)c(OC)c2)ccc1O,19,48,5.2,96.1,21,57.6,30,3130,14.8,6250,67.8,,43.3,,
COc1cc(/C=C/[C@H](C)Cc2ccc(O)c(OC)c2)ccc1O,18,11,14.8,95.7,14,66.4,32,3130,11.5,6250,49.4,,66,,
COc1cc(C[C@H](C)[C@@H](C)Cc2ccc(O)c(OC)c2)ccc1O,24,4.03,17.8,34.5,32,49.9,18,390,51.9,1560,20.1,3130,38,1.3,1.3
COc1cc(C[C@@H](C)[C@H](C)Cc2ccc(O)c(OC)c2)ccc1O [(-)-DIHYDROGUAIARETICACID],26,3.52,14.9,36.5,22,49.9,29,390,18.4,1560,33.8,,32,,
COc1cc(C[C@@H](C)[C@@H](C)Cc2ccc(O)c(OC)c2)ccc1O [MESODIHYDROGUAIARETIC ACID],28,5.12,20.9,45.8,41,53.7,17,1560,68.8,1560,26,,30,1.3,1.3
